Measurements reported in ChEMBL document CHEMBL1129001, “From indomethacin to a selective COX-2 inhibitor: Development of indolalkanoic acids as potent and selective cyclooxygenase-2 inhibitors” (Bioorg Med Chem Lett, 1996).

Columns and labels:
[1] = target: T1, Prostaglandin G/H synthase 2 (Rattus norvegicus, UniProt P35355)
T1 sequence (P35355 whole entry): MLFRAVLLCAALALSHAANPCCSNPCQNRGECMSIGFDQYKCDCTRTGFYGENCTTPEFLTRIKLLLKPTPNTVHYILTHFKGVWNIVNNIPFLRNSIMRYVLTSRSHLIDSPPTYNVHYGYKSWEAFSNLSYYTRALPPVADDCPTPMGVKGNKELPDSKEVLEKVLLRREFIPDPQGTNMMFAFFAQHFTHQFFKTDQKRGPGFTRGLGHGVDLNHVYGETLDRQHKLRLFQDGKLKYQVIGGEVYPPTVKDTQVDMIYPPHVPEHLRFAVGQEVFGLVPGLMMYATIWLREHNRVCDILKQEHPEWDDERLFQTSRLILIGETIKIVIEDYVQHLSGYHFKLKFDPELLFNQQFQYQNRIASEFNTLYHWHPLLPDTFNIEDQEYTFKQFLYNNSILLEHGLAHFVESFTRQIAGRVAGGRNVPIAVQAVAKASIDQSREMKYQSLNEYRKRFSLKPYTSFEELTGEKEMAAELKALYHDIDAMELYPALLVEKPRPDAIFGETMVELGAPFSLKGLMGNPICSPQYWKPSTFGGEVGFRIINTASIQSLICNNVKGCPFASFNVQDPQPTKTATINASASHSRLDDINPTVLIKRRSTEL
Description: Inhibition of Prostaglandin G/H synthase 2

[2] = target: T2, Prostaglandin G/H synthase 1 (Rattus norvegicus, UniProt Q63921)
T2 sequence (Q63921 whole entry): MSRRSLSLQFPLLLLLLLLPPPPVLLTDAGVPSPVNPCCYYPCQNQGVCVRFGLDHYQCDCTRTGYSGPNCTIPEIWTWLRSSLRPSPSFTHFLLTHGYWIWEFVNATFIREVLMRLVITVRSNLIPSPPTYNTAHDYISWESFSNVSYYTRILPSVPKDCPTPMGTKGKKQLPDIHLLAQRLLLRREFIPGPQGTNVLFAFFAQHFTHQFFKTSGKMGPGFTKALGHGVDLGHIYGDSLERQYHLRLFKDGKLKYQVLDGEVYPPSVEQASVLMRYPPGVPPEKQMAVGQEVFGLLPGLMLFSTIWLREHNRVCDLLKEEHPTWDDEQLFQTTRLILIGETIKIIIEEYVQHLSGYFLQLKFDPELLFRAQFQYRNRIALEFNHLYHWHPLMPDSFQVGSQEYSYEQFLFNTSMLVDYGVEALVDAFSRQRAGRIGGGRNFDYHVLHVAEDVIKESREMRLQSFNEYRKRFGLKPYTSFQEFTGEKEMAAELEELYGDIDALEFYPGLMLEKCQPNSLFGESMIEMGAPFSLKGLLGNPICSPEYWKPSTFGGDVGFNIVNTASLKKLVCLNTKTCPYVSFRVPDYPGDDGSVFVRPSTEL
Description: Inhibition of Prostaglandin G/H synthase 1 using whole cell assay

Rattus norvegicus = test: Compound was evaluated for inhibition of paw edema in rat; format: functional

SMILES | IC50 [1] [nM] | IC50 [2] [nM] | ED30 (Rattus norvegicus) [mg/kg]
COc1ccc2c(c1)c(CC(=O)O)c(C)n2C(=O)c1c(Cl)cc(Cl)cc1Cl | 500 | > 100000 | 1.3
COc1ccc2c(c1)c(CC(C)C(=O)O)c(C)n2Cc1ccc(Br)cc1 (centres undefined) | 3 | > 50000 | 2.6
COc1ccc2c(c1)c(CCC(=O)O)c(C)n2Cc1ccc(Br)cc1 | 3 | > 50000 | > 3
COc1ccc2c(c1)c(C(C)C(=O)O)c(C)n2Cc1ccc(Cl)cc1 (centres undefined) | 20 | 11000 | 3
COc1ccc2c(c1)c(C(C)CC(=O)O)c(C)n2Cc1ccc(Br)cc1 (centres undefined) | 4 | > 50000 | 0.6
COc1ccc2c(c1)c(CC1(CC(=O)O)CC1)c(C)n2Cc1ccc(Br)cc1 | 16 | > 10000 | 0.5
COc1ccc2c(c1)c([C@@H](C)[C@@H](C)C(=O)O)c(C)n2Cc1ccc(Br)cc1 | 60 | > 50000 | 0.6
COc1ccc2c(c1)c(CC(=O)O)c(C)n2Cc1ccc(Br)cc1 | 9 | 41000 | 0.6
COc1ccc2c(c1)c(CCC(C)C(=O)O)c(C)n2Cc1ccc(Br)cc1 (centres undefined) | 4 | > 10000 | 1.6
COc1ccc2c(c1)c(CCCC(=O)O)c(C)n2Cc1ccc(Br)cc1 | 6 | > 50000 | 1.2
COc1ccc2c(c1)c(CC(C)CC(=O)O)c(C)n2Cc1ccc(Br)cc1 (centres undefined) | 2 | > 10000 | 0.4
COc1ccc2c(c1)c(CC(=O)O)c(C)n2C(=O)c1ccc(Cl)cc1 [INDOMETHACIN] |  |  | 0.9
